Test results reported in paper PMC6270601, “Dimeric Labdane Diterpenes: Synthesis and Antiproliferative Effects” (Molecules, 2013).

Columns and labels:
[1] = system: J82 bladder carcinoma cells; experiment: Antiproliferative assay (MTT reduction), J82 bladder carcinoma cells; assay type: cell-based, human; settings: Homo sapiens, 72 h; J82 bladder carcinoma; 3 days treatment, MTT reduction; mean ± SD; >100 µM considered inactive
Experimental: (§1) All human cell lines used in this work were purchased from the American Type Culture Collection (ATCC, Manasas, VA, USA). […] Promyelocytic leukemia HL-60 cells (CCL-240) were grown in suspension in RPM1 medium containing 1 mM sodium pyruvate and 2.0 g/L sodium bicarbonate. All media were supplemented with 10% heat-inactivated FBS, 100 IU/mL penicillin and 100 µg/mL streptomycin. Cells were grown in a humidified incubator with 5% CO2 in air at 37 °C. For the antiproliferative assay, adherent cells were plated at a density of 5 × 10^4 cells/mL and HL-60 cells at 30 × 10^4 cells/mL. Cells were seeded in 96-well plates (100 µL/well). One day after seeding, cells were treated with medium containing the compounds at concentrations ranging from 0 up to 100 µM during 3 days. The compounds were dissolved in DMSO (1% final concentration) and complete medium. Untreated cells (medium containing 1% DMSO) were used as 100% viability controls. […] Each concentration was tested in sextuplicate and experiments were repeated 2 times. Cell viability was determined by means of the MTT reduction assay at the end of the incubation with the products.

HL-60 cells = experiment: Antiproliferative assay (MTT reduction), HL-60 promyelocytic leukemia cells; assay type: cell-based, human; settings: Homo sapiens, 72 h; HL-60 promyelocytic leukemia; 3 days treatment, MTT reduction; mean ± SD; >100 µM considered inactive
Experimental: as §1

[2] = system: MRC-5, AGS, SK-MES-1, J82 and HL-60 cell lines; experiment: Antiproliferative assay, panel of five human cell lines (summary in words); assay type: cell-based; settings: SK-MES-1, J82, HL-60, up to 100 µM
Experimental: (§2) The compounds 1–20 were assessed for antiproliferative effect towards human lung fibroblasts (MRC-5) and the following human tumor cell lines: gastric adenocarcinoma (AGS), lung cancer cells (SK-MES-1), bladder carcinoma (J82) and promyelocytic leukemia (HL-60).
(§3) All human cell lines used in this work were purchased from the American Type Culture Collection (ATCC, Manasas, VA, USA). Normal lung MRC-5 fibroblasts (CCL-171), SK-MES-1 lung cancer cells (HTB-58) and J82 bladder carcinoma cells (HTB-1) were grown as monolayers in minimum essential Eagle medium (MEM) with Earles’s salts, 2 mM L-glutamine and 1.5 g/L sodium bicarbonate. Gastric adenocarcinoma AGS cells (CRL-1739) were grown as monolayers in Ham F-12 medium containing 1 mM L-glutamine and 1.5 g/L sodium bicarbonate. Promyelocytic leukemia HL-60 cells (CCL-240) were grown in suspension in RPM1 medium containing 1 mM sodium pyruvate and 2.0 g/L sodium bicarbonate. All media were supplemented with 10% heat-inactivated FBS, 100 IU/mL penicillin and 100 µg/mL streptomycin. Cells were grown in a humidified incubator with 5% CO2 in air at 37 °C. For the antiproliferative assay, adherent cells were plated at a density of 5 × 10^4 cells/mL and HL-60 cells at 30 × 10^4 cells/mL. Cells were seeded in 96-well plates (100 µL/well). One day after seeding, cells were treated with medium containing the compounds at concentrations ranging from 0 up to 100 µM during 3 days. The compounds were dissolved in DMSO (1% final concentration) and complete medium. Untreated cells (medium containing 1% DMSO) were used as 100% viability controls. […] Each concentration was tested in sextuplicate and experiments were repeated 2 times. Cell viability was determined by means of the MTT reduction assay at the end of the incubation with the products. The results were transformed to percentage of controls and the IC50 values were graphically obtained from the dose-response curves.

[3] = system: SK-MES-1 lung cancer cells; experiment: Antiproliferative assay (MTT reduction), SK-MES-1 lung cancer cells; assay type: cell-based, human; settings: Homo sapiens, 72 h; SK-MES-1 lung cancer cells; 3 days treatment, MTT reduction; mean ± SD; >100 µM considered inactive
Experimental: as §1

MRC-5 normal fibroblasts = experiment: Antiproliferative assay (MTT reduction), MRC-5 normal lung fibroblasts; assay type: cell-based, human; settings: Homo sapiens, MRC5, 72 h; MRC-5 normal fibroblasts; 3 days treatment, MTT reduction; mean ± SD; >100 µM considered inactive
Experimental: as §1

AGS cells = experiment: Antiproliferative assay (MTT reduction), AGS gastric adenocarcinoma cells; assay type: cell-based, human; settings: Homo sapiens, 72 h; AGS gastric adenocarcinoma; 3 days treatment, MTT reduction; mean ± SD; >100 µM considered inactive
Experimental: as §2, §3

Row | Compound | IC50 [1] [µM] | IC50 (HL-60 cells) [µM] | antiproliferative effect on the five cell lines (in words) [2] | IC50 [3] [µM] | IC50 (MRC-5 normal fibroblasts) [µM] | IC50 (AGS cells) [µM]
1 | C=C1CCC2[C@](C)(CCC[C@]2(C)C(=O)OC)[C@H]1CC[C@@H](C)CCn1cc(CCC(=O)O)nn1 (stereo partly drawn) [Compound 6, 15-(4-(2-Carboxyethyl)-1H-1,2,3-triazol-1-yl)-imbricatolic acid methyl ester] | > 100 | > 100 | no antiproliferative effect on any of the cell lines | > 100 | > 100 | > 100
2 | C=C1CCC2[C@](C)(CCC[C@]2(C)C(=O)O)[C@H]1CC[C@@H](C)CCOC(=O)CCc1cn(CC[C@H](C)CC[C@H]2C(=C)CCC3[C@]2(C)CCC[C@]3(C)C(=O)OC)nn1 (stereo partly drawn) [Compound 19] | > 100 | 42.4 ± 2.5 | no antiproliferative effect on any of the cell lines, except on HL-60 | > 100 | > 100 | > 100
